Results reported in patent US11078450B2, “Material containing solid bleaching agent, and detergent composition” (SHIKOKU CHEMICALS CORPORATION, priority 2016, dated 2021).

Legend:
[1] = Stability test 2 (long-term storage test); assay type: physicochemical; settings: in pasty detergent composition
Experimental: In a stainless steel beaker were charged 5 g of distilled water and 3 g of potassium carbonate, and the potassium carbonate was dissolved. […] . The pasty detergent composition heated to 60° C. was accurately weighed within a range of from 2.5 to 3.5 g, a mass thereof was recorded up to 3 decimal places, and added so as to be superimposed on the solid bleaching agent-containing material or sodium dichloroisocyanurate, to thereby prepare detergent compositions containing the solid bleaching agent-containing material or the solid bleaching agent. […] One month later, the entire amount of the detergent composition containing the solid bleaching agent-containing material or the solid bleaching agent in the cup was dissolved in about 100 ml of distilled water, and the effective chlorine retention rate was evaluated from the effective chlorine content in the same manner as in the case of the stability test 1.
. […] The case where the effective chlorine retention rate was less than 5% was evaluated as failed which is denoted by B, because an effect of improving stability was hardly recognized. The case where the effective chlorine retention rate was 5% or more was evaluated as pass which is denoted by A, because an effect of improving stability was recognized. […]

[2] = Stability test 3 (abrasion test); assay type: physicochemical; settings: uncoated; storage 40° C., 75% RH, 3 months
Experimental: In order to evaluate a stability in the case where a physical impact was applied to the solid bleaching agent-containing materials having a coating layer prepared in Examples 1, 25, 28, 31, 35, 36, 37, 38, and 39, an abrasion test was carried out by using a tablet abrasion tester (manufactured by Toyama Sangyo Co., Ltd.). This tablet abrasion tester is composed of a plastic drum container having an inner diameter of about 286 mm and a depth of about 38 mm, and an electric part rotating the drum container in a vertical direction. Inside the drum container, a partition plate is provided so that a test sample in the container is lifted up to about 157 mm in height and falls each time when the drum container makes one rotation. Such a tablet abrasion tester is readily available. […]
The case where the effective chlorine retention rate was less than 5% was evaluated as failed which is denoted by B because an effect of improving stability was hardly recognized. The case where the effective chlorine retention rate was 5% or more and less than 10% was evaluated as pass which is denoted by A, because an effect of improving stability was recognized. The case where the effective chlorine retention rate was 10% or more was evaluated as particularly excellent among passes, which is denoted by S. The results were as shown in Table 27.

[3] = Stability test 1 (storage test), effective chlorine retention rate
Experimental: In the case where the solid bleaching agent is a chlorine bleaching agent, an effective chlorine content (in terms of Cl2) in the solid bleaching agent-containing material can be calculated by Expression 3 by using an iodine titration method. That is, iodine which is liberated by the reaction of active chlorine and potassium iodide is titrated with sodium thiosulfate solution, and the effective chlorine content is calculated by the following Expression 3.
(§1) A stability of the solid bleaching agent-containing material having a coating layer thus obtained can be evaluated on the basis of how much an effective chlorine retention rate or effective oxygen retention rate after a storage test under certain conditions is improved before and after coating. The effective chlorine retention rate (%) is defined by the following Expression 9. […] Similarly, in the case where the solid bleaching agent is an oxygen bleaching agent, the stability of the solid bleaching agent is defined by the effective oxygen retention rate (%). […] Effective chlorine or effective oxygen retention rate (%)=R1×100/R2 (Expression 9)
Distilled water was added thereto to be about 100 ml, and about 1 g potassium iodide and about 5 ml of a 50% by mass acetic acid aqueous solution were further added and stirred for about 5 minutes. The liberated iodine was titrated with a 0.1 N sodium thiosulfate aqueous solution. After a yellow color of the solution became thin, approximately 1 ml of an aqueous solution of starch (10 g/L) was added as an indicator and the titration was continued until a blue color of the generated iodine-starch disappeared. The effective chlorine content (%) was determined from the titration amount of the sodium thiosulfate aqueous solution.
(§2) At this time, room temperature was 20° C. and relative humidity was 40%.

[4] = per 100 g of water; cited from earlier work
[5] = Stability test 1 (storage test), effective oxygen retention rate; settings: uncoated solid bleaching agent (before coating)
Experimental: Even in the case of the oxygen solid bleaching agent, an effective oxygen content (in terms of O2) in the solid bleaching agent-containing material can be calculated by using an iodine titration method. That is, iodine which is liberated by the reaction of active oxygen and potassium iodide is titrated with a sodium thiosulfate solution, and the effective oxygen content is calculated by Expression 4. In order to accelerate the reaction between active oxygen and potassium iodide, a small amount of ammonium molybdate aqueous solution adjusted to 1% by mass may be added. […] Effective oxygen content (%)=a×f×0.08000/b (Expression 4)
as §1, §2

[6] = uncoated solid bleaching agent (before coating)

| SMILES | Stability test 2: effective chlorine retention rate ([1]; 1 month, 40° C., 75% RH) [%] | Stability test 2: before coating, effective chlorine retention rate (%) ([1]; uncoated, after 1 month) | Stability test 3: before coating, effective chlorine retention rate (%) [2] [%] | Stability test 1: before coating, effective chlorine retention rate (%) [3, 6] [%] | Stability test 1: before coating, effective chlorine retention rate (%) ([3]; unprocessed solid bleaching agent mixed with detergent components and 3 ml tap water at 60° C., 18 hours at room temperature) | solubility with respect to water of 100 g [4] [g] | Stability test 1: before coating, effective oxygen retention rate (%) [5] [%] |
| --- | --- | --- | --- | --- | --- | --- | --- |
| O=c1nc([O-])n(Cl)c(=O)n1Cl.[Na+] [Sodium dichloroisocyanurate] | 0 | 0 | 0 | 12 | 12 | – | – |
| O=c1n(Cl)c(=O)n(Cl)c(=O)n1Cl [trichloroisocyanuric acid, Trichloroisocyanuric acid] | – | – | – | 30 | – | 1.2 | – |
| O=C([O-])[O-].O=C([O-])[O-].OO.OO.OO.[Na+].[Na+].[Na+].[Na+] [Sodium percarbonate] | – | – | – | – | – | – | 25 |
